Test results published in publication PMC12025681, “Repositioning Fluoxetine as a TRPV3 Channel Inhibitor to Alleviate Skin Inflammation and Pruritus” (Current Issues in Molecular Biology, 2025).

Assays:
human TRPV3 (hTRPV3) = target: T1, human TRPV3 (hTRPV3) (Homo sapiens, UniProt Q8NET8); assay: whole-cell patch clamp and inside-out single-channel recording in transfected HEK293T cells (2-APB-evoked currents); format: cell-based
T1 sequence (Q8NET8 1-790): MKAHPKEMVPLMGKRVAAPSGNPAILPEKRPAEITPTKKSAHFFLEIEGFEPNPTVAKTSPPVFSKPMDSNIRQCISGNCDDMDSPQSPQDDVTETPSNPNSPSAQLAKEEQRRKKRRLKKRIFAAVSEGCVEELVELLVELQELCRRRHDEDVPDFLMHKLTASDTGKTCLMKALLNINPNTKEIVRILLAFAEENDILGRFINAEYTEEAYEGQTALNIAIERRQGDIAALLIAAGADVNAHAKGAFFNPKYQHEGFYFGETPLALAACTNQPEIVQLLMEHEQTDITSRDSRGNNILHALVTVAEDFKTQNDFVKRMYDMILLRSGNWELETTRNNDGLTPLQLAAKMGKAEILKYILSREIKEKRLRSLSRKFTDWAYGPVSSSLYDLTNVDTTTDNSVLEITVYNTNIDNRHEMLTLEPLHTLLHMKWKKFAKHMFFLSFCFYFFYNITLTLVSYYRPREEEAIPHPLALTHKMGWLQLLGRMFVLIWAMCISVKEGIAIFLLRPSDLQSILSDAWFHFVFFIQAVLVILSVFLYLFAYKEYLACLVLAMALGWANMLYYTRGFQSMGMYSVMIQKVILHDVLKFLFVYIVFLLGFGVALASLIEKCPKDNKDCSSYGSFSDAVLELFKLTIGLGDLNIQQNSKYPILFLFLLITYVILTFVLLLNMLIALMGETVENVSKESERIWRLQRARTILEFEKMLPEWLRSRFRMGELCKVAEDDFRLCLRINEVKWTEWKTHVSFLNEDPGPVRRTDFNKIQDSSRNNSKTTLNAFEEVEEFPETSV

TRPM8 (hTRPM8) = TRPM8 (hTRPM8) (Homo sapiens, UniProt Q7Z2W7); assay: whole-cell patch clamp in transfected HEK293T cells (menthol-evoked currents); format: cell-based
Sequence of TRPM8 (hTRPM8) (Q7Z2W7 whole entry): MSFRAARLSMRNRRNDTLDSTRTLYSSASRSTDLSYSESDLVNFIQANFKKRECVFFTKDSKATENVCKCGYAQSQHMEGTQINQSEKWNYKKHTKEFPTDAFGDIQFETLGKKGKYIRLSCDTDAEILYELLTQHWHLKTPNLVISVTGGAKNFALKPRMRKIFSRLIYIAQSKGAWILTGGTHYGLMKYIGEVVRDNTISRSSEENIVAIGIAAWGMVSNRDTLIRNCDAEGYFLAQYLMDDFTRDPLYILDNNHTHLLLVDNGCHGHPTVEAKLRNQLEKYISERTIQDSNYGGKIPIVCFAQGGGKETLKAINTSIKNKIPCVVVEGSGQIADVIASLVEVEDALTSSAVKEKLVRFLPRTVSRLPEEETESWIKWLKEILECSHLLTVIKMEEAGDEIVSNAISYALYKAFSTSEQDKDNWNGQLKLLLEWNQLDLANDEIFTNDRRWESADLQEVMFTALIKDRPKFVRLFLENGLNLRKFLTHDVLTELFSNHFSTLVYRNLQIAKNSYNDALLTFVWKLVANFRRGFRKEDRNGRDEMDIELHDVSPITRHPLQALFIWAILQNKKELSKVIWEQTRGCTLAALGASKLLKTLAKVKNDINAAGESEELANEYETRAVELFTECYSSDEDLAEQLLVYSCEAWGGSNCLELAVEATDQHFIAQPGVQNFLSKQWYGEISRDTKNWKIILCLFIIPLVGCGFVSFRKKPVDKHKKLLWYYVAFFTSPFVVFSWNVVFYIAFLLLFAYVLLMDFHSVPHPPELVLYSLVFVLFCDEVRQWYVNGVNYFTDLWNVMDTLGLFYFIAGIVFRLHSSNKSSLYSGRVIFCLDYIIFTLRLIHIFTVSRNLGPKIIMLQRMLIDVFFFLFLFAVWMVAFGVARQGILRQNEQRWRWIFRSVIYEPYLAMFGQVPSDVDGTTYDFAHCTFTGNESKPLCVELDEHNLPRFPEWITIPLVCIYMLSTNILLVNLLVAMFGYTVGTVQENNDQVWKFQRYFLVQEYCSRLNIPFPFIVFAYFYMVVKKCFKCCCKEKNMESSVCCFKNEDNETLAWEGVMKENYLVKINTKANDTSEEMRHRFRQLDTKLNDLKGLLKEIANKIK

`CNCCC(Oc1ccc(C(F)(F)F)cc1)c1ccccc1` (centres unmarked) [FLX, Fluoxetine] gave an IC50 (human TRPV3 (hTRPV3)) of 10.2 ± 2.34 µM and an IC50 (TRPM8 (hTRPM8)) of 20 ± 3.3 µM.
